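Values below derive from 48-hour exposures of cells grown in 96-well plates, with endpoints linearly interpolated between the two concentrations bracketing the appropriate inhibition level. TGI: concentration producing complete growth inhibition.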
Experiments:
Assay in all cases: NCI-60 cell line screen, 48 h
786-0 renal = test system: 786-0 renal
A549 NSCLC = test system: A549 NSCLC
ACHN renal = test system: ACHN renal
BT-549 breast = test system: BT-549 breast
CAKI-1 renal = test system: CAKI-1 renal
COLO 205 colon = test system: COLO 205 colon
DU-145 prostate = test system: DU-145 prostate
EKVX NSCLC = test system: EKVX NSCLC
HCC-2998 colon = test system: HCC-2998 colon
HCT-116 colon = test system: HCT-116 colon
HCT-15 colon = test system: HCT-15 colon
HL-60(TB) leukemia = test system: HL-60(TB) leukemia
HOP-62 NSCLC = test system: HOP-62 NSCLC
HOP-92 NSCLC = test system: HOP-92 NSCLC
HT29 colon = test system: HT29 colon
IGROV1 ovarian = test system: IGROV1 ovarian
KM12 colon = test system: KM12 colon
LOX IMVI melanoma = test system: LOX IMVI melanoma
M14 melanoma = test system: M14 melanoma
MCF7 breast = test system: MCF7 breast
MDA-MB-231 breast = test system: MDA-MB-231 breast
MDA-MB-435 = test system: MDA-MB-435
MDA-N = test system: MDA-N
MOLT-4 leukemia = test system: MOLT-4 leukemia
NCI-H226 lung = test system: NCI-H226 lung
NCI-H23 lung = test system: NCI-H23 lung
NCI-H460 lung = test system: NCI-H460 lung
NCI/ADR-RES ovarian = test system: NCI/ADR-RES ovarian
OVCAR-3 ovarian = test system: OVCAR-3 ovarian
OVCAR-5 ovarian = test system: OVCAR-5 ovarian
OVCAR-8 ovarian = test system: OVCAR-8 ovarian
PC-3 prostate = test system: PC-3 prostate
SF-295 CNS = test system: SF-295 CNS
SF-539 CNS = test system: SF-539 CNS
SK-MEL-2 melanoma = test system: SK-MEL-2 melanoma
SK-MEL-28 melanoma = test system: SK-MEL-28 melanoma
SK-MEL-5 melanoma = test system: SK-MEL-5 melanoma
SK-OV-3 ovarian = test system: SK-OV-3 ovarian
SN12C renal = test system: SN12C renal
SNB-19 CNS = test system: SNB-19 CNS
SNB-75 CNS = test system: SNB-75 CNS
SW-620 colon = test system: SW-620 colon
T-47D breast = test system: T-47D breast
TK-10 renal = test system: TK-10 renal
U251 CNS = test system: U251 CNS
UACC-257 melanoma = test system: UACC-257 melanoma
UACC-62 melanoma = test system: UACC-62 melanoma
UO-31 renal = test system: UO-31 renal
A498 renal = test system: A498 renal
CCRF-CEM leukemia = test system: CCRF-CEM leukemia
K-562 leukemia = test system: K-562 leukemia
MALME-3M melanoma = test system: MALME-3M melanoma
RPMI-8226 leukemia = test system: RPMI-8226 leukemia
RXF 393 renal = test system: RXF 393 renal
SF-268 CNS = test system: SF-268 CNS
SR leukemia = test system: SR leukemia
NCI-H522 lung = test system: NCI-H522 lung
OVCAR-4 ovarian = test system: OVCAR-4 ovarian

Measured: TGI

CC(=O)C1C(=O)C(=O)N(c2ccc(Cl)c(Cl)c2)C1=O (stereo not given)
not listed: A498 renal | CCRF-CEM leukemia | K-562 leukemia | MALME-3M melanoma | RPMI-8226 leukemia | RXF 393 renal | SF-268 CNS | SR leukemia | NCI-H522 lung | OVCAR-4 ovarian
> 100 µM: all other assays above

C/C=C1\C(=O)O[C@H]2C/C(C)=C/CC/C(C)=C/CC[C@@]3(C)O[C@@H]3C[C@@H]12
not listed: HOP-92 NSCLC | LOX IMVI melanoma | NCI-H226 lung | NCI-H23 lung | NCI-H522 lung | OVCAR-4 ovarian
> 100 µM: all other assays above

O=c1c2ccc(Cl)cc2oc2c(CNc3ccc(S(=O)(=O)Nc4nccs4)cc3)cccc12
5.51 µM: CAKI-1 renal
not listed: HL-60(TB) leukemia | NCI-H460 lung | SNB-75 CNS
> 100 µM: all other assays above
